Source: PubChem BioAssay AID330 (DTP/NCI, 2004)
Values joined by “and” are separate entries in the source; they are usually repeats but may differ in a detail not shown here. Equal values may be shown once. Inconclusive results and toxic doses are left out. How the source made its calls: active means survival T/C of 150% or more; inactive means T/C below 125% in these data.

Tested on: P388 leukemia ip, CD2F1 mice, survival T/C
Assay: NCI In Vivo Anticancer Drug Screen. Data for tumor model P388 Leukemia (intraperitoneal) in CD2F1 (CDF1) mice
Conditions: endpoint: median survival time, higher = longer survival
Summary of the method: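 Mice carrying the transplanted tumor received test compound or vehicle. Survival was recorded in each group, and the value is the treated-group measurement divided by that of the vehicle-treated control group.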

[1] = dose: 25.0 mg/kg/injection, schedule: Q01DX009 (ip), vehicle: saline with Tween-80
[2] = dose: 50.0 mg/kg/injection, schedule: Q01DX009 (ip), vehicle: saline with Tween-80
[3] = dose: 100.0 mg/kg/injection, schedule: Q01DX009 (ip), vehicle: saline with Tween-80
[4] = dose: 50.0 mg/kg/injection, schedule: Q01DX009 (ip), vehicle: Klucel (hydroxypropylcellulose) (HPC)
[5] = dose: 200.0 mg/kg/injection, schedule: Q01DX009 (ip), vehicle: saline with Tween-80
[6] = dose: 12.5 mg/kg/injection, schedule: Q01DX009 (ip), vehicle: Klucel (hydroxypropylcellulose) (HPC)
[7] = dose: 25.0 mg/kg/injection, schedule: Q01DX009 (ip), vehicle: Klucel (hydroxypropylcellulose) (HPC)
[8] = dose: 25.0 mg/kg/injection, schedule: Q01DX009 (ip), vehicle: other
[9] = dose: 50.0 mg/kg/injection, schedule: Q01DX009 (ip), vehicle: other
[10] = dose: 100.0 mg/kg/injection, schedule: Q01DX009 (ip), vehicle: other
[11] = dose: 50.0 mg/kg/injection, schedule: Q01DX009 (ip), vehicle: saline
[12] = dose: 100.0 mg/kg/injection, schedule: Q01DX009 (ip), vehicle: saline
[13] = dose: 50.0 mg/kg/injection, schedule: Q01DX005 (ip), vehicle: saline
[14] = dose: 100.0 mg/kg/injection, schedule: Q01DX005 (ip), vehicle: saline
[15] = dose: 50.0 mg/kg/injection, schedule: Q04DX003 (ip), vehicle: saline with Tween-80
[16] = dose: 100.0 mg/kg/injection, schedule: Q04DX003 (ip), vehicle: saline with Tween-80
[17] = dose: 25.0 mg/kg/injection, schedule: Q01DX005 (ip), vehicle: saline
[18] = dose: 50.0 mg/kg/injection, schedule: Q01DX005 (ip), vehicle: saline with Tween-80
[19] = dose: 100.0 mg/kg/injection, schedule: Q01DX005 (ip), vehicle: saline with Tween-80
[20] = dose: 200.0 mg/kg/injection, schedule: Q01DX005 (ip), vehicle: saline with Tween-80

Measured: T/C

O=C1c2ccccc2C(O)(C#Cc2ccccc2)c2c1oc1c2ccc2ccccc21 (stereo not given)
inactive: dose: 12.5 mg/kg/injection, schedule: Q01DX009 (ip), vehicle: saline with Tween-80 97 % of control | [1] 92 % of control | [2] 90 % of control | [3] 108 % of control

OCC1OC(n2cnc3c(=S)nc[nH]c32)CC1O (stereo not given)
inactive: dose: 167.0 mg/kg/injection, schedule: Q01DX009 (ip), vehicle: saline with Tween-80 100 % of control | dose: 267.0 mg/kg/injection, schedule: Q01DX009 (ip), vehicle: saline with Tween-80 113 % of control

O=C1NC(=O)N2CC(CI)OC2C1c1ccccc1 (stereo not given)
inactive: [4] 103 % of control | dose: 100.0 mg/kg/injection, schedule: Q01DX009 (ip), vehicle: Klucel (hydroxypropylcellulose) (HPC) 98 % of control | dose: 200.0 mg/kg/injection, schedule: Q01DX009 (ip), vehicle: Klucel (hydroxypropylcellulose) (HPC) 100 % of control

O=c1oc(-c2ccccc2CCl)nc2ccccc12
inactive: [2] 106 % of control | [3] 104 % of control | [5] 101 % of control

CC1=C2C(=CO[C@H](C)[C@H]2C)C(=O)C(C(=O)O)=C1O
inactive: dose: 6.25 mg/kg/injection, schedule: Q01DX009 (ip), vehicle: Klucel (hydroxypropylcellulose) (HPC) 112 % of control | dose: 6.25 mg/kg/injection, schedule: Q01DX009 (ip), vehicle: saline 117 % of control | [6] 120 % of control | dose: 12.5 mg/kg/injection, schedule: Q01DX009 (ip), vehicle: saline 115 % of control | [7] 124 % of control

Cc1c(C)[n+]([O-])c(-c2ccc(N(C)C)cc2)n1O
inactive: [2] 100 % of control | [3] 91 % of control | [5] 94 % of control

COCN1C(=O)CN=C(c2ccccc2)c2cc(NO)ccc21
inactive: [6] 105 % of control | [7] 105 % of control | [4] 100 % of control and 106 % of control

Cn1nnnc1/C=C/c1ccccc1
inactive: dose: 100.0 mg/kg/injection, schedule: Q04DX003 (ip), vehicle: Klucel (hydroxypropylcellulose) (HPC) 106 % of control | dose: 200.0 mg/kg/injection, schedule: Q04DX003 (ip), vehicle: Klucel (hydroxypropylcellulose) (HPC) 104 % of control | dose: 400.0 mg/kg/injection, schedule: Q04DX003 (ip), vehicle: Klucel (hydroxypropylcellulose) (HPC) 105 % of control

COc1cc2c(c(Cl)c1OC)CCN(C)CC2c1ccccc1 (stereo not given)
inactive: dose: 60.0 mg/kg/injection, schedule: Q01DX005 (ip), vehicle: saline 102 % of control | dose: 120.0 mg/kg/injection, schedule: Q01DX005 (ip), vehicle: saline 98 % of control

COc1ccc(C(OCC2CC3CCC2C3)OCC2CC3CCC2C3)cc1 (stereo not given)
inactive: dose: 12.5 mg/kg/injection, schedule: Q01DX009 (ip), vehicle: other 114 % of control | [8] 111 % of control | [9] 110 % of control | [10] 111 % of control | dose: 200.0 mg/kg/injection, schedule: Q01DX009 (ip), vehicle: other 111 % of control

CC(=O)ON1C(=O)C=CC1=O
inactive: dose: 0.78 mg/kg/injection, schedule: Q01DX009 (ip), vehicle: water 109 % of control | dose: 1.56 mg/kg/injection, schedule: Q01DX009 (ip), vehicle: water 101 % of control | dose: 3.13 mg/kg/injection, schedule: Q01DX009 (ip), vehicle: water 104 % of control and 87 % of control | dose: 6.25 mg/kg/injection, schedule: Q01DX009 (ip), vehicle: water 104 % of control and 86 % of control | dose: 12.5 mg/kg/injection, schedule: Q01DX009 (ip), vehicle: water 109 % of control and 90 % of control

CCOC(=O)C1C/C(=N\OS(=O)(=O)c2ccc(C)cc2)c2ccc(OC)c(OC)c2C1 (stereo not given)
inactive: [8] 92 % of control | [9] 89 % of control | [10] 87 % of control | dose: 400.0 mg/kg/injection, schedule: Q01DX009 (ip), vehicle: other 97 % of control

BrC(Br)=C(Br)Br
inactive: [11] 100 % of control | [12] 104 % of control | dose: 200.0 mg/kg/injection, schedule: Q01DX009 (ip), vehicle: saline 104 % of control

COc1ccc(CNCCCSC)cc1
inactive: [13] 105 % of control | [14] 110 % of control

CC(C)C(=O)CCCN1C(=O)c2ccccc2C1=O
inactive: dose: 12.5 mg/kg/injection, schedule: Q01DX009 (ip), vehicle: distilled water + Tween-80 94 % of control | dose: 25.0 mg/kg/injection, schedule: Q01DX009 (ip), vehicle: distilled water + Tween-80 86 % of control | dose: 50.0 mg/kg/injection, schedule: Q01DX009 (ip), vehicle: distilled water + Tween-80 86 % of control | dose: 100.0 mg/kg/injection, schedule: Q01DX009 (ip), vehicle: distilled water + Tween-80 100 % of control

CC(S)c1ccccc1 (stereo not given)
inactive: [2] 115 % of control | [3] 113 % of control | [5] 115 % of control

CCN(CC)c1csc2c3ccccc3nc(C)[n+]12
inactive: dose: 100.0 mg/kg/injection, schedule: Q04DX003 (ip), vehicle: saline + Tween-80 + alcohol 104 % of control | dose: 200.0 mg/kg/injection, schedule: Q04DX003 (ip), vehicle: saline + Tween-80 + alcohol 94 % of control | dose: 400.0 mg/kg/injection, schedule: Q04DX003 (ip), vehicle: saline + Tween-80 + alcohol 105 % of control

CCN(CC)CCOC(=O)C(c1ccccc1)C1(O)CCCCC1 (stereo not given)
inactive: [13] 100 % of control | [14] 107 % of control

CCOC(=O)NC(=S)Nc1ccn(C)c1
inactive: [15] 99 % of control and 101 % of control | [16] 100 % of control and 94 % of control and 97 % of control | dose: 200.0 mg/kg/injection, schedule: Q04DX003 (ip), vehicle: saline with Tween-80 100 % of control | dose: 400.0 mg/kg/injection, schedule: Q04DX003 (ip), vehicle: saline with Tween-80 98 % of control and 103 % of control and 97 % of control

COc1cc2c(cc1OC)CN1CCc3ccsc3C1C2 (stereo not given)
inactive: dose: 50.0 mg/kg/injection, schedule: Q01DX001 (ip), vehicle: Klucel (hydroxypropylcellulose) (HPC) 104 % of control | dose: 100.0 mg/kg/injection, schedule: Q01DX001 (ip), vehicle: Klucel (hydroxypropylcellulose) (HPC) 101 % of control | dose: 200.0 mg/kg/injection, schedule: Q01DX001 (ip), vehicle: Klucel (hydroxypropylcellulose) (HPC) 97 % of control

CCCCCC(CN(C)C)C(=O)/C=C/c1ccc(Br)cc1 (stereo not given)
inactive: dose: 6.25 mg/kg/injection, schedule: Q01DX005 (ip), vehicle: saline 100 % of control | dose: 12.5 mg/kg/injection, schedule: Q01DX005 (ip), vehicle: saline 110 % of control | [17] 107 % of control | [13] 102 % of control

CC12CCC(C=C1N1CCOCC1)C(C)(C)O2 (stereo not given)
inactive: dose: 25.0 mg/kg/injection, schedule: Q01DX005 (ip), vehicle: saline with Tween-80 97 % of control | [17] 100 % of control | [18] 103 % of control | [13] 102 % of control | [19] 94 % of control | [14] 100 % of control | [20] 94 % of control | dose: 200.0 mg/kg/injection, schedule: Q01DX005 (ip), vehicle: saline 99 % of control

C=C1CC2(CC(C(C)C)CCC2C)OC1=O (stereo not given)
inactive: dose: 100.0 mg/kg/injection, schedule: Q01DX001 (ip), vehicle: saline 105 % of control | dose: 200.0 mg/kg/injection, schedule: Q01DX001 (ip), vehicle: saline 100 % of control | dose: 400.0 mg/kg/injection, schedule: Q01DX001 (ip), vehicle: saline 105 % of control

O=C(Nc1ccc2cc(S(=O)(=O)O)ccc2c1)c1ccc(N=Nc2c(S(=O)(=O)O)cc3cc(S(=O)(=O)O)cc(NC(=O)c4ccccc4)c3c2O)cc1
inactive: [1] 108 % of control | dose: 25.0 mg/kg/injection, schedule: Q04DX003 (ip), vehicle: saline with Tween-80 91 % of control | [2] 108 % of control | [15] 87 % of control | [3] 87 % of control | [16] 95 % of control

Cc1ccc(S(=O)(=O)C(CC(=O)CCN2CCCCC2)c2ccccc2)cc1 (stereo not given)
inactive: [11] 102 % of control | [12] 96 % of control

CCCCN=C(N=C(NC(=O)c1ccccc1)c1ccccc1)c1ccccc1
inactive: [2] 90 % of control | [3] 89 % of control | [5] 93 % of control

C=CC1CC(NC(=O)OCCCC)C(=O)O1 (stereo not given)
inactive: [18] 99 % of control | [19] 101 % of control | [20] 102 % of control
